Results from US12440472B2, “Stable tryptamine oral films” (INTELGENX CORP., priority 2021, dated 2025).

Experiments:
[1] = Stability studies comparing phosphoric acid with citric acid and antioxidants/stabilizers (films stored at 50 C); conditions: compared with film made with only phosphoric acid, 50 C. for two weeks
[2] = administered orally; cited from earlier work

Row | Molecule | degradation products / impurity profile of psilocybin film with stabilizer or acid [1] | degradation products / impurity profile of psilocybin film with stabilizer or acid ([1]; listed as copper) | drug absorbed into the bloodstream [2] | time of maximum plasma concentration [2]
1 | Cc1cc(C(C)(C)C)c(O)c(C(C)(C)C)c1 [BHT] | promoting the degradation | – | – | –
2 | [Cl][Cu][Cl] [copper chloride, Copper (II) chloride] | no effect | promoting the degradation | – | –
3 | CN(C)CCc1c[nH]c2cccc(OP(=O)(O)O)c12 [psilocybin] | – | – | about 50% | approximately 80 minutes
4 | vitamin E | promoting the degradation | – | – | –
